Test results published in US20220380374A1, “1,4-DIHYDROBENZO[D]PYRAZOLO[3,4-F][1,3]DIAZEPINE DERIVATIVES AND RELATED COMPOUNDS AS LRRK2, NUAK1 AND/OR TYK2 KINASE MODULATORS FOR THE TREATMENT OF E.G. AUTOIMMUNE DISEASE” (Origenis GMBH, priority 2019, published 2022).

How the values were obtained:
[1] = molecular target: T1, wt human NUAK1, full length (Homo sapiens, UniProt O60285); experiment: TR-FRET LanthaScreen Eu Kinase Binding Assay, NUAK1; conditions: 5 nM Kinase Tracer 236; read-out: IC50, inhibitory activity toward NUAK1
T1 construct: 8 nM wt human NUAK1, full length (ThermoFisher/USA); purchased ThermoFisher/USA
T1 sequence (O60285 1-661): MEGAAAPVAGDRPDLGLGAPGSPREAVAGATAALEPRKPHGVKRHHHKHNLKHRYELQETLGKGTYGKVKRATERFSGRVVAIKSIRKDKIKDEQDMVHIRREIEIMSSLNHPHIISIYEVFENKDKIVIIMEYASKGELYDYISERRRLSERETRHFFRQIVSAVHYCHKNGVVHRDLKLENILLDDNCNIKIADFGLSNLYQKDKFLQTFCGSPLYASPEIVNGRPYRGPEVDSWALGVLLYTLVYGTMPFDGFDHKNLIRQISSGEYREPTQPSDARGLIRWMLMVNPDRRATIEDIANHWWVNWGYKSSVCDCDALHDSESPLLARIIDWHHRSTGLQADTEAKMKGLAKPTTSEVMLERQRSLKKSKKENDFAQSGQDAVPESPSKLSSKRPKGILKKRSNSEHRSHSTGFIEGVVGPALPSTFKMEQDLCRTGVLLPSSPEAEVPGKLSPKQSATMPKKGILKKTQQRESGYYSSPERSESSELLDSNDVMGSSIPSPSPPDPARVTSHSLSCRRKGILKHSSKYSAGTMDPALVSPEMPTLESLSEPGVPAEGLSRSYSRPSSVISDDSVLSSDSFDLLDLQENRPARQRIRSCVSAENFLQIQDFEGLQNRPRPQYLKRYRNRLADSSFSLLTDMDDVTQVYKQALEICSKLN
Method in brief: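 TR-FRET tracer-displacement binding with 8 nM full-length wild-type human NUAK1, 2 nM Eu-anti-His antibody and 5 nM Kinase Tracer 236 in 1× Kinase Buffer A (final). Compound, kinase/antibody and tracer incubated 1 h at room temperature; emission ratios analysed per kit protocol.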

[2] = molecular target: T2, wt human TYK2, catalytic site (Homo sapiens, UniProt P29597); experiment: HTRF KinEASE assay, TYK2; format: biochemical; conditions: 1 μM ATP; read-out: IC50, inhibitory activity toward TYK2
T2 construct: 2 nM wt human TYK2, catalytic site (SignalChem/CAN); purchased SignalChem/CAN
T2 sequence (P29597 897-1176 limits assumed): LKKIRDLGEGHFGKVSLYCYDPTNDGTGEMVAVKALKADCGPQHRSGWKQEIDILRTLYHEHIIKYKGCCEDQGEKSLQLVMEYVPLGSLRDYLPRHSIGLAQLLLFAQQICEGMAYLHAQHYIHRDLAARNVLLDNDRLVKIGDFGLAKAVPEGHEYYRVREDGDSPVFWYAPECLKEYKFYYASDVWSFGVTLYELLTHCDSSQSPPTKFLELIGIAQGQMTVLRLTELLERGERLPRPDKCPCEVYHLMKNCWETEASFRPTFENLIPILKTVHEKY
Protocol: Basic protocol for HTRF KinEASE assay (Cisbio/FRA) inhibitor studies involved two steps: Enzymatic step: Addition of 4 μl of test compound in corresponding DMSO dilutions, 4 μl of kinase/substrate mixture, 2 μl of ATP into 384 well small volume plates. Incubation for at least 30 minutes at room temperature.
Detection step: Addition of 5 μl antibody and 5 μl streptavidin-XL665, read plate after 60 minutes. Data analysis of emission ratios according to KinEASE assay protocol.
Kinase and assay components were adjusted to final concentrations according to the kit protocol. For TYK2: 2 nM wt human TYK2, catalytic site (SignalChem/CAN), 1 μM HTRF KinEASE-TK Substrate-biotin, 1 μM ATP in 1× Kinase Buffer

Row | SMILES | IC50 [1] [nM] | IC50 [2] [nM]
1 | CCc1cc(F)c2c(c1)-c1[nH]nc(Cl)c1NC(c1c(F)cccc1F)=N2 [Compound 168, 3-chloro-5-(2,6-difluorophenyl)-9-ethyl-7-fluoro-1,4-dihydrobenzo[d]pyrazolo[3,4-f][1,3]diazepine] | 10 to 100 | 100 to 1000
2 | Fc1cccc(Cl)c1C1=Nc2c(Br)n[nH]c2-c2cccnc2N1 [Compound 88] | 10 to 100 | 10 to 100
3 | Cc1cnc2c(c1)-c1[nH]ncc1N=C(c1c(F)cccc1F)N2 [Compound 61, 5-(2,6-difluorophenyl)-9-methyl-1,6-dihydropyrazolo[4,3-d]pyrido[3,2-f][1,3]diazepine] | 10 to 100 | 100 to 1000
4 | O=C(c1ccc2c(c1)N=C(c1c(F)cccc1Cl)Nc1cn[nH]c1-2)N1CCOCC1 [Compound 78, (5-(2-chloro-6-fluorophenyl)-1,4-dihydrobenzo[d]pyrazolo[3,4-f][1,3]diazepin-8-yl)(morpholino)methanone] | 100 to 1000 | 100 to 1000
5 | Cc1ccc2c(c1)-c1[nH]ncc1NC(c1c(F)cccc1Br)=N2 [Compound 161, 5-(2-bromo-6-fluorophenyl)-9-methyl-1,4-dihydrobenzo[d]pyrazolo[3,4-f][1,3]diazepine] | 10 to 100 | 100 to 1000
6 | O=C(O)c1cc2c(cc1Cl)-c1[nH]ncc1N=C(c1c(F)cccc1F)N2 [Compound 198, 9-chloro-5-(2,6-difluorophenyl)-1,6-dihydrobenzo[d]pyrazolo[3,4-f][1,3]diazepine-8-carboxylic acid] | 100 to 1000 | 10 to 100
7 | CC(C)(C)NC(=O)c1cc2c(cc1Cl)-c1n[nH]cc1N=C(c1c(F)cccc1F)N2 [Compound 201, N-(tert-butyl)-9-chloro-5-(2,6-difluorophenyl)-2,6-dihydrobenzo[d]pyrazolo[3,4-f][1,3]diazepine-8-carboxamide] | 100 to 1000 | 10 to 100
8 | Fc1cccc(Cl)c1C1=Nc2cn[nH]c2-c2cc(OC(F)F)ccc2N1 [Compound 43, 5-(2-chloro-6-fluorophenyl)-9-(difluoromethoxy)-1,6-dihydrobenzo[d]pyrazolo[3,4-f][1,3]diazepine] | 10 to 100 | 100 to 1000
9 | Fc1cccc(F)c1C1=Nc2ccc(Cl)cc2-c2[nH]ncc2N1 [Compound 25, 9-chloro-5-(2,6-difluorophenyl)-1,4-dihydrobenzo[d]pyrazolo[3,4-f][1,3]diazepine] | 10 to 100 | 100 to 1000
10 | Cc1ccc2c(c1)-c1[nH]ncc1NC(c1c(F)ccc(Br)c1Cl)=N2 [Compound 183, 5-(3-bromo-2-chloro-6-fluorophenyl)-9-methyl-1,4-dihydrobenzo [d]pyrazolo[3,4-f][1,3]diazepine] | 10 to 100 | 100 to 1000
11 | COc1cc2c(cn1)NC(c1c(F)cccc1F)=Nc1cn[nH]c1-2 [Compound 127, 5-(2,6-difluorophenyl)-9-methoxy-1,6-dihydropyrazolo[4,3-d]pyrido[4,3-f][1,3]diazepine] | 10 to 100 | 10 to 100
12 | Fc1cc2c(cc1OC1CCCC1)N=C(c1c(F)cccc1Cl)Nc1c[nH]nc1-2 [Compound 245, 5-(2-chloro-6-fluorophenyl)-8-(cyclopentyloxy)-9-fluoro-2,4-dihydrobenzo[d]pyrazolo[3,4-f][1,3]diazepine] | 100 to 1000 | 10 to 100
13 | Fc1cc2c(cc1OC1CCOCC1)N=C(c1c(F)cccc1C(F)(F)F)Nc1c[nH]nc1-2 [Compound 223, 9-fluoro-5-(2-fluoro-6-(trifluoromethyl)phenyl)-8-((tetrahydro-2H-pyran-4-yl)oxy)-2,4-dihydrobenzo[d]pyrazolo[3,4-f][1,3]diazepine] | 100 to 1000 | 10 to 100
14 | Cc1ccc2c(c1)-c1[nH]ncc1NC(c1c(F)ccc(F)c1F)=N2 [Compound 182, 9-methyl-5-(2,3,6-trifluorophenyl)-1,4-dihydrobenzo[d]pyrazolo [3,4-f][1,3]diazepine] | 10 to 100 | 100 to 1000
15 | Cc1ccc2c(c1)-c1[nH]ncc1N=C(c1c(C)cccc1F)N2 [Compound 172, 5-(2-fluoro-6-methylphenyl)-9-methyl-1,6-dihydrobenzo[d]pyrazolo[3,4-f][1,3]diazepine] | 100 to 1000 | 100 to 1000
16 | Cc1ccc2c(c1)-c1[nH]nc(Cl)c1NC(c1c(F)cccc1F)=N2 [Compound 143, 3-chloro-5-(2,6-difluorophenyl)-9-methyl-1,4-dihydrobenzo[d]pyrazolo [3,4-f][1,3]diazepine] | 10 to 100 | 100 to 1000
17 | COc1ccc2c(c1F)N=C(c1c(F)cccc1F)Nc1cn[nH]c1-2 [Compound 169, 5-(2,6-difluorophenyl)-7-fluoro-8-methoxy-1,4-dihydrobenzo[d]pyrazolo[3,4-f][1,3]diazepine] | 10 to 100 | 10 to 100
18 | Fc1cccc(F)c1C1=Nc2cc(OC3CCOCC3)ccc2-c2[nH]ncc2N1 [Compound 99, 5-(2,6-difluorophenyl)-8-((tetrahydro-2H-pyran-4-yl)oxy)-1,4-dihydrobenzo[d]pyrazolo[3,4-f][1,3]diazepine] | 10 to 100 | 10 to 100
19 | Fc1cccc(Cl)c1C1=Nc2ccccc2-c2[nH]ncc2N1 [Compound 27, 5-(2-chloro-6-fluorophenyl)-1,4-dihydrobenzo[d]pyrazolo[3,4-f][1,3]diazepine] | 10 to 100 | 10 to 100
20 | O=C(NCC(F)(F)F)c1cc2c(cc1Cl)-c1n[nH]cc1N=C(c1c(F)cccc1F)N2 [Compound 202, 9-chloro-5-(2,6-difluorophenyl)-N-(2,2,2-trifluoroethyl)-2,6-dihydrobenzo[d]pyrazolo[3,4-f][1,3]diazepine-8-carboxamide] | 10 to 100 | 10 to 100
21 | Cc1ccc2c(c1)-c1[nH]ncc1NC(c1c(Cl)cccc1Cl)=N2 [Compound 152, 5-(2,6-dichlorophenyl)-9-methyl-1,4-dihydrobenzo[d]pyrazolo[3,4-f][1,3]diazepine] | 100 to 1000 | 100 to 1000
22 | CSc1n[nH]c2c1NC(c1c(F)cccc1F)=Nc1ccccc1-2 [Compound 146, 5-(2,6-difluorophenyl)-3-(methylthio)-1,4-dihydrobenzo[d]pyrazolo [3,4-f][1,3]diazepine] | 100 to 1000 | 100 to 1000
23 | Fc1ccc(Cl)c(F)c1C1=Nc2ccccc2-c2[nH]ncc2N1 [Compound 18, 5-(3-chloro-2,6-difluorophenyl)-1,4-dihydrobenzo[d]pyrazolo[3,4-f][1,3]diazepine] | 100 to 1000 | 100 to 1000
24 | Cc1ccc2c(c1)-c1[nH]ncc1N=C(c1c(F)cccc1F)N2 [Compound 36, 5-(2,6-difluorophenyl)-9-methyl-1,6-dihydrobenzo[d]pyrazolo[3,4-f][1,3]diazepine] | 10 to 100 | 100 to 1000
25 | Fc1ccc(-c2ccc3c(c2)N=C(c2c(F)cccc2F)Nc2c[nH]nc2-3)cc1 [Compound 237, 5-(2,6-difluorophenyl)-8-(4-fluorophenyl)-2,4-dihydrobenzo[d]pyrazolo[3,4-f][1,3]diazepine] | < 10 | 10 to 100
26 | Cc1ccc2c(c1)-c1[nH]ncc1N=C(c1c(F)cccc1[N+](=O)[O-])N2 [Compound 125, 5-(2-fluoro-6-nitrophenyl)-9-methyl-1,6-dihydrobenzo[d]pyrazolo[3,4-f][1,3]diazepine] | 10 to 100 | 100 to 1000
27 | COc1ccc2c(c1)-c1[nH]ncc1N=C(c1c(F)cccc1F)N2 [Compound 38, 5-(2,6-difluorophenyl)-9-methoxy-1,6-dihydrobenzo[d]pyrazolo[3,4-f][1,3]diazepine] | 100 to 1000 | 100 to 1000
28 | Fc1cc2c(cc1OC1CCOCC1)N=C(c1c(F)cccc1F)Nc1c[nH]nc1-2 [Compound 220, 5-(2,6-difluorophenyl)-9-fluoro-8-((tetrahydro-2H-pyran-4-yl)oxy)-2,4-dihydrobenzo[d]pyrazolo[3,4-f][1,3]diazepine] | 100 to 1000 | 10 to 100
